Source: publication PMC12495443, “Developing inhibitors of the guanosine triphosphate hydrolysis accelerating activity of Regulator of G protein Signaling-14 [drawing 1]” (The Journal of Biological Chemistry, 2025)

The compounds below were run against T1, human RGS14 RGS-box (wild-type) (Homo sapiens, UniProt O43566) (assay: Transcreener GDP RGScreen fluorescence polarization assay of RGS14 RGS-box GAP activity on Gαi1(DM)). Details: wild-type RGS14 RGS-box GAP activity, Gαi1(DM), Transcreener GDP RGScreen; read-out: RGS14 pIC50 (converted).
T1 construct: human RGS14 RGS-box (aa 46–195 of UniProt O43566); host or cells: E. coli
T1 sequence (O43566 46-195): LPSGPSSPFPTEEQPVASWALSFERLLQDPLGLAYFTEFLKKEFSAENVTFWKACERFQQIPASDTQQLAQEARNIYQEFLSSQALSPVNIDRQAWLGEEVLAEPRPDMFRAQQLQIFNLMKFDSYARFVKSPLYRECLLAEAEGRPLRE
Type: biochemical
Source text: We previously described work with BellBrook Labs creating the Transcreener GDP RGScreen fluorescence polarization assay of steady-state GTP hydrolysis, leveraging a double point-mutant in the Gα enzyme to make GTP hydrolysis, rather than GDP (product) release, the rate-limiting step for multiple rounds of GTP conversion ([57], [59]). […] Titrating inputs of the double point-mutant (“DM”) Gαi1 and RGS-box recombinant proteins (Fig. S2, B and C) established a robust, medium-throughput assay for evaluating potential RGS14 and RGS12 inhibitors, with “assay quality” Z′ scores ([60]) above 0.76 for each target (Fig. S2D).
Reagents and protocols for the fluorescence anisotropy-based Transcreener GDP RGScreen assay using a rate-altered, double point-mutant, recombinant Gαi1 protein have been extensively described previously ([43], [44]); reactions were always performed so that total GTP converted over the time course was consistently less than 10% of reaction maximum input. Specific methods for its application in assessing RGS14 and RGS12 GAP activity are summarized as follows. Open-reading frames (ORFs) encoding wild-type versions of the human RGS14 RGS-box (aa 46–195 of UniProt O43566) and human RGS12 RGS-box (aa 695–843 of UniProt O14924) were each sub-cloned in-frame with an N-terminal hexahistidine (His6) expression tag in the plasmid pET30a, expressed in E. coli cultures, and then purified by nickel-nitriloacetate (Ni-NTA) and size-exclusion (Superdex 200) column chromatographies by GenScript using previously described methods ([35]). These recombinant His6-tag fusion proteins were stored at −80 °C in storage buffer (150 mM NaCl, 50 mM Tris-HCl pH 8.0, 10% glycerol) before thawing and use. Cysteine-less versions were similarly produced by ORF site-directed mutagenesis: for RGS14, codons for cysteine residues 47 and 130 (numbered as in PDB id 2JNU) were replaced with serine codons; for RGS12, codons for cysteines 4, 51, 78, and 134 (numbered in relation to PDB id 2EBZ) were replaced with serine codons. Use of Transcreener GDP-detection reagents to assess compound inhibition of Naegleria fowleri Gα7 protein GTPase activity ([83]) has previously been described ([84]).

| Compound | IC50 |
| --- | --- |
| COc1ccc2nc(SC(C)C(=O)c3ccc(Br)cc3)[nH]c2c1 (stereo not drawn) [Z16077584] | > 1000 µM |
| COCCn1c(SC(C)C(=O)c2ccc(OC)cc2)nc2ccccc21 (stereo not drawn) [Z16216221] | > 1000 µM |
| COc1ccc2nc(SCCC(=O)c3ccc(F)cc3)[nH]c2c1 [Z16077963] | > 1000 µM |
| COc1ccc2nc(SC(C)C(=O)c3cc(C)c(C)cc3C)[nH]c2c1 (stereo not drawn) [Z16077531] | > 1000 µM |
| Cc1ccc2[nH]c(SC(C)C(=O)c3ccc(F)cc3)nc2c1 (stereo not drawn) [Z18443583] | > 1000 µM |
| CCOc1ccc2[nH]c(SCCC(=O)c3ccc(F)cc3)nc2c1 [Z19828508] | > 1000 µM |
| COc1ccc2nc(SCC(=O)c3ccc(F)cc3)[nH]c2c1 [Z16077977] | > 1000 µM |
| COc1ccc2nc(SC(C)C(=O)c3ccc(C)c(C)c3)[nH]c2c1 (stereo not drawn) [Z16077488] | > 1000 µM |
| COc1ccc2nc(SC(C)C(=O)c3ccc(NC(=O)C(C)(C)C)cc3)[nH]c2c1 (stereo not drawn) [Z50965385] | > 1000 µM |
| COc1ccc2nc(SC(C)C(=O)c3ccc(OC(F)F)cc3)[nH]c2c1 (stereo not drawn) [Z16077231] | > 1000 µM |
| CCn1c(SC(C)C(=O)c2ccccc2)nc2cc(S(=O)(=O)N3CCOCC3)ccc21 (stereo not drawn) [Z16669878] | > 1000 µM |
| CCCCn1c(SC(C(=O)c2ccc(OC)cc2)c2ccc(OC)cc2)nc2cc(S(N)(=O)=O)ccc21 (stereo not drawn) [Z19162246] | > 1000 µM |
| CCOc1ccc(C(=O)C(C)Sc2nc3ccccc3n2C)cc1 (stereo not drawn) [Z15479255] | > 1000 µM |
| CCn1c(SC(C)C(=O)c2ccc3c(c2)CCC3)nc2cc(S(=O)(=O)N3CCOCC3)ccc21 (stereo not drawn) [Z16669629] | > 1000 µM |
| COc1ccc(-n2c(SC(C)C(=O)c3cc(C)ccc3C)nc3ccccc32)cc1 (stereo not drawn) [Z19576483] | > 1000 µM |
| COc1ccc2nc(SC(C)C(=O)c3ccc4c(c3)CCC4)[nH]c2c1 (stereo not drawn) [Z16076970] | > 1000 µM |
| CCc1ccc(C(=O)C(C)Sc2nc3cc(C)ccc3[nH]2)cc1 (stereo not drawn) [Z18443315] | > 1000 µM |

| Compound | IC50 |
| --- | --- |
| COCCn1c(SC(C)C(=O)c2ccc(Br)cc2)nc2ccccc21 (stereo not drawn) [Z16216100] | > 1000 µM |
| CCn1c(SC(C)C(=O)c2ccc(NS(C)(=O)=O)cc2)nc2ccccc21 (stereo not drawn) [Z50932618] | > 1000 µM |
| COc1ccc2nc(SC(C)C(=O)Nc3ccc(C)cc3)[nH]c2c1 (stereo not drawn) [Z16077036] | > 1000 µM |
| CCc1ccc(C(=O)C(C)Sc2nc3ccc(OC)cc3[nH]2)cc1 (stereo not drawn) [Z16077530] | > 1000 µM |
| COc1ccc2nc(SC(C)C(=O)c3ccc(F)c(F)c3)[nH]c2c1 (stereo not drawn) [Z16077536] | > 1000 µM |
| COc1ccc(-n2c(SC(C)C(=O)c3cc(C)c(C)cc3C)nc3ccccc32)cc1 (stereo not drawn) [Z19576531] | > 1000 µM |
| COc1ccc2nc(SC(C)C(=O)c3ccc(C(C)(C)C)cc3)[nH]c2c1 (stereo not drawn) [Z16077565] | > 1000 µM |
| COc1ccc(C(=O)C(Sc2nc3ccccc3n2C)c2ccc(OC)cc2)cc1 (stereo not drawn) [Z15478257] | > 1000 µM |
| COc1ccc2nc(SC(C)C(=O)c3cc(C)ccc3C)[nH]c2c1 (stereo not drawn) [Z16077483] | > 1000 µM |
| COc1ccc(C(=O)C(C)Sc2nc3ccc(OC)cc3[nH]2)cc1 (stereo not drawn) [Z16077705] | > 1000 µM |
| Cc1ccc2[nH]c(SC(C)C(=O)c3ccc(OC(F)F)cc3)nc2c1 (stereo not drawn) [Z18443016] | > 1000 µM |
| COc1ccc(C(=O)C(C)Sc2nc3ccc(OC)cc3[nH]2)c(OC)c1 (stereo not drawn) [Z16077640] | > 1000 µM |
| COc1ccc2nc(SC(C)C(=O)c3cccc(Cl)c3)[nH]c2c1 (stereo not drawn) [Z16077229] | > 1000 µM |
| CC(Sc1nc2ccccc2n1C)C(=O)c1ccc(NS(C)(=O)=O)cc1 (stereo not drawn) [Z50932699] | > 1000 µM |
| COc1ccc2nc(SC(C)C(=O)c3ccccc3)[nH]c2c1 (stereo not drawn) [Z16077228] | > 1000 µM |
| COc1ccc2nc(SC(C)C(=O)c3ccc(F)cc3)[nH]c2c1 (stereo not drawn) [Z16077798] | > 1000 µM |
| COc1ccc2nc(SC(C)C(=O)c3ccc(NC(C)=O)cc3)[nH]c2c1 (stereo not drawn) [Z16077185] | > 1000 µM |

Now from value to compound:

| IC50 | Compound |
| --- | --- |
| > 1000 µM | CCn1c(SC(C)C(=O)c2cc(C)ccc2C)nc2cc(S(N)(=O)=O)ccc21 (stereo not drawn) [Z51418807] |
| > 1000 µM | CCn1c(SC(C)C(=O)c2ccc(Br)cc2)nc2cc(S(N)(=O)=O)ccc21 (stereo not drawn) [Z51418902] |
| > 1000 µM | COc1ccc2nc(SC(C)C(=O)N(C)C)[nH]c2c1 (stereo not drawn) [Z92077129] |
| > 1000 µM | COc1ccc2nc(SC(C)C(=O)c3[nH]c(C)c(C(C)=O)c3C)[nH]c2c1 (stereo not drawn) [Z98717471] |
| > 1000 µM | CCn1c(SC(C)C(=O)c2cccc(Cl)c2)nc2cc(S(N)(=O)=O)ccc21 (stereo not drawn) [Z51418566] |
| > 1000 µM | COc1ccc2[nH]c(SCC(=O)c3ccc(O)c(O)c3)nc2c1 [Z223822242] |
| > 1000 µM | CCOc1ccc(C(=O)C(C)Sc2nc3cc(S(N)(=O)=O)ccc3n2CC)cc1 (stereo not drawn) [Z51419689] |
| > 1000 µM | COCCn1c(SC(C)C(=O)c2ccc3c(c2)CCN3C(C)=O)nc2ccccc21 (stereo not drawn) [Z165550978] |
| > 1000 µM | COc1ccc2[nH]c(SC(C(N)=O)c3ccc(F)cc3)nc2c1 (stereo not drawn) [Z234729962] |
| > 1000 µM | COc1ccc2nc(SC(C)C(=O)c3ccco3)[nH]c2c1 (stereo not drawn) [Z3277796272] |
| > 1000 µM | COc1ccc(C(=O)C(C)Sc2nc3cc(C)ccc3[nH]2)cc1Cl (stereo not drawn) [Z5032180749] |
| > 1000 µM | CCC(Sc1nc2ccc(OC)cc2[nH]1)C(=O)c1ccc(Cl)cc1 (stereo not drawn) [Z5032180785] |
| > 1000 µM | COc1ccc2nc(SC(C)C(=O)c3ccccc3C(F)(F)F)[nH]c2c1 (stereo not drawn) [Z5032180788] |
| > 1000 µM | CC(=O)N1CCc2cc(C(=O)C(C)Sc3nc4cc(C)ccc4[nH]3)ccc21 (stereo not drawn) [Z165332254] |
| > 1000 µM | COc1ccc2nc(SC(C)C(=O)c3ccc4c(c3)CCN4C(C)=O)[nH]c2c1 (stereo not drawn) [Z165591262] |
| > 1000 µM | COc1ccc2nc(SC(C)C(=O)Nc3ccc(F)cc3F)[nH]c2c1 (stereo not drawn) [Z112468618] |
| > 1000 µM | Cc1ccc2[nH]c(SC(C)C(=O)c3c(F)cc(F)cc3F)nc2c1 (stereo not drawn) [Z1098347474] |
| > 1000 µM | CCc1ccc(C(=O)C(C)Sc2nc3cc(S(N)(=O)=O)ccc3n2CC)cc1 (stereo not drawn) [Z51418852] |
| > 1000 µM | CCn1c(SC(C)C(=O)c2ccc(F)cc2)nc2cc(S(N)(=O)=O)ccc21 (stereo not drawn) [Z51419107] |
| > 1000 µM | COc1ccc2nc(SC(C)C(=O)c3cccc(F)c3)[nH]c2c1 (stereo not drawn) [Z5032180758] |
| > 1000 µM | CCC(Sc1nc2ccc(OC)cc2[nH]1)C(=O)c1ccc(NC(C)=O)cc1 (stereo not drawn) [Z1340653159] |

| IC50 | Compound |
| --- | --- |
| > 1000 µM | CCOc1ccc2nc(SCC(=O)c3ccc(CC)cc3)[nH]c2c1 [Z55030990] |
| > 1000 µM | CCn1c(SC(C)C(=O)c2ccc3c(c2)CCN3C(C)=O)nc2ccccc21 (stereo not drawn) [Z165501154] |
| > 1000 µM | CCn1c(SC(C)C(=O)c2ccc(NC(C)=O)cc2)nc2cc(S(N)(=O)=O)ccc21 (stereo not drawn) [Z51418527] |
| > 1000 µM | COc1ccc2nc(SC(C)C(=O)c3ccc(F)cc3F)[nH]c2c1 (stereo not drawn) [Z167736700] |
| > 1000 µM | CCC(Sc1nc2ccc(OC)cc2[nH]1)C(=O)c1ccc(OC)cc1 (stereo not drawn) [Z5032180767] |
| > 1000 µM | COc1ccc2nc(SCC(O)c3ccccc3)[nH]c2c1 (stereo not drawn) [Z56784116] |
| > 1000 µM | COc1ccc2nc(SC(C)C(=O)c3ccc(OC)c(OC)c3)[nH]c2c1 (stereo not drawn) [Z940567722] |
| > 1000 µM | CCn1c(SC(C)C(=O)c2c(F)cc(F)cc2F)nc2ccccc21 (stereo not drawn) [Z1098345881] |
| > 1000 µM | COc1ccc(-n2c(SC(C)C(=O)c3c(F)cc(F)cc3F)nc3ccccc32)cc1 (stereo not drawn) [Z5032180751] |
| > 1000 µM | CCn1c(SC(C)C(=O)c2ccc3c(c2)CCC3)nc2cc(S(N)(=O)=O)ccc21 (stereo not drawn) [Z51418316] |
| > 1000 µM | CCn1c(SC(C)C(=O)c2c(F)cc(F)cc2F)nc2cc(S(=O)(=O)N3CCCCC3)ccc21 (stereo not drawn) [Z5032180738] |
| > 1000 µM | CC(Sc1nc2ccccc2n1C(C)C)C(=O)c1ccc(C(C)C)cc1C(C)C (stereo not drawn) [Z54156331] |
| > 1000 µM | COc1ccc2nc(SC(C)C(=O)Nc3cc(F)ccc3F)[nH]c2c1 (stereo not drawn) [Z112468620] |
| > 1000 µM | CCn1c(SC(C)C(=O)c2ccc(Cl)cc2)nc2cc(S(N)(=O)=O)ccc21 (stereo not drawn) [Z51418567] |
| > 1000 µM | CCn1c(SC(C)C(=O)c2ccc(OC)cc2)nc2cc(S(N)(=O)=O)ccc21 (stereo not drawn) [Z51419018] |
| > 1000 µM | CCCC(=O)Nc1ccc(C(=O)C(C)Sc2nc3ccc(OC)cc3[nH]2)cc1 (stereo not drawn) [Z50965416] |
| > 1000 µM | COc1ccc2nc(SCCOCC3CCCO3)[nH]c2c1 (stereo not drawn) [Z1258859165] |
| > 1000 µM | COc1ccc2nc(SC(C)C(=O)c3ccc(NC(=O)C(C)C)cc3)[nH]c2c1 (stereo not drawn) [Z65841956] |
| > 1000 µM | COc1ccc2nc(SC(C(=O)OC(C)(C)C)C(C)C)[nH]c2c1 (stereo not drawn) [Z5032180761] |
| > 1000 µM | COc1ccc2nc(SCC(=O)c3ccc(O)cc3)[nH]c2c1 [Z112468740] |
